In patent US8143243B2, “Compounds for the treatment of hepatitis C” (Bristol-Myers Squibb Company, priority 2007, dated 2012):

Target: T1, HCV NS5B (Hepatitis C virus genotype 1b, UniProt Q9WMX2)
T1 construct: The protein was expressed with an 18 amino acid C-terminal truncation to enhance the solubility; made in house; host or cells: E. coli BL21 (DE3)
Test: HCV NS5B RdRp enzyme assay (standard / modified)
Assay type: biochemical
Conditions: not given
Protocol: HCV NS5B RdRp cloning, expression, and purification. The cDNA encoding the NS5B protein of HCV, genotype 1b, was cloned into the pET21a expression vector. The protein was expressed with an 18 amino acid C-terminal truncation to enhance the solubility. The E. coli competent cell line BL21 (DE3) was used for expression of the protein. Cultures were grown at 37° C. for ˜4 hours until the cultures reached an optical density of 2.0 at 600 nm. The cultures were cooled to 20° C. and induced with 1 mM IPTG. Fresh ampicillin was added to a final concentration of 50 μg/ml and the cells were grown overnight at 20° C.
Cell pellets (3 L) were lysed for purification to yield 15-24 mgs of purified NS5B. The lysis buffer consisted of 20 mM Tris-HCl, pH 7.4, 500 mM NaCl, 0.5% triton X-100, 1 mM DTT, 1 mM EDTA, 20% glycerol, 0.5 mg/ml lysozyme, 10 mM MgCl2, 15 ug/ml deoxyribonuclease I, and Complete TM protease inhibitor tablets (Roche). After addition of the lysis buffer, frozen cell pellets were resuspended using a tissue homogenizer. To reduce the viscosity of the sample, aliquots of the lysate were sonicated on ice using a microtip attached to a Branson sonicator. The sonicated lysate was centrifuged at 100,000×g for 1 hr at 4° C. and filtered through a 0.2 μm filter unit (Corning).
The protein was purified using three sequential chromatography steps: Heparin sepharose CL-6B, polyU sepharose 4B, and Hitrap SP sepharose (Pharmacia). The chromatography buffers were identical to the lysis buffer but contained no lysozyme, deoxyribonuclease I, MgCl2 or protease inhibitor and the NaCl concentration of the buffer was adjusted according to the requirements for charging the protein onto the column. Each column was eluted with a NaCl gradient which varied in length from 5-50 column volumes depending on the column type. After the final chromatography step, the resulting purity of the enzyme is >90% based on SDS-PAGE analysis. The enzyme was aliquoted and stored at −80° C.
Standard HCV NS5B RdRp enzyme assay. HCV RdRp genotype 1b assays were run in a final volume of 60 μl in 96 well plates (Costar 3912). The assay buffer is composed of 20 mM Hepes, pH 7.5, 2.5 mM KCl, 2.5 mM MgCl2, 1 mM DTT, 1.6 U RNAse inhibitor (Promega N2515), 0.1 mg/ml BSA (Promega R3961), and 2% glycerol. All compounds were serially diluted (3-fold) in DMSO and diluted further in water such that the final concentration of DMSO in the assay was 2%. HCV RdRp genotype 1b enzyme was used at a final concentration of 28 nM. A polyA template was used at 6 nM, and a biotinylated oligo-dT12 primer was used at 180 nM final concentration. Template was obtained commercially (Amersham 27-4110). Biotinylated primer was prepared by Sigma Genosys. 3H-UTP was used at 0.6 μCi (0.29 μM total UTP). Reactions were initiated by the addition of enzyme, incubated at 30° C. for 60 min, and stopped by adding 25 μl of 50 mM EDTA containing SPA beads (4 μg/μl, Amersham RPNQ 0007). Plates were read on a Packard Top Count NXT after >1 hr incubation at room temperature.
Modified HCV NS5B RdRp enzyme assay. A modified enzyme assay was performed essentially as described for the standard enzyme assay except for the following: The biotinylated oligo dT12 primer was precaptured on streptavidin-coated SPA beads by mixing primer and beads in assay buffer and incubating at room temperature for one hour. Unbound primer was removed after centrifugation. The primer-bound beads were resuspended in 20 mM Hepes buffer, pH 7.5 and used in the assay at final concentrations of 20 nM primer and 0.67 μg/μl beads. Order of addition in the assay: enzyme (14 nM) was added to diluted compound followed by the addition of a mixture of template (0.2 nM), 3H-UTP (0.6 μCi, 0.29 μM), and primer-bound beads, to initiate the reaction; concentrations given are final. Reactions were allowed to proceed for 4 hours at 30° C.
IC50 values for compounds were determined using seven different [I]. […]

T1 sequence (Q9WMX2 2420-2992): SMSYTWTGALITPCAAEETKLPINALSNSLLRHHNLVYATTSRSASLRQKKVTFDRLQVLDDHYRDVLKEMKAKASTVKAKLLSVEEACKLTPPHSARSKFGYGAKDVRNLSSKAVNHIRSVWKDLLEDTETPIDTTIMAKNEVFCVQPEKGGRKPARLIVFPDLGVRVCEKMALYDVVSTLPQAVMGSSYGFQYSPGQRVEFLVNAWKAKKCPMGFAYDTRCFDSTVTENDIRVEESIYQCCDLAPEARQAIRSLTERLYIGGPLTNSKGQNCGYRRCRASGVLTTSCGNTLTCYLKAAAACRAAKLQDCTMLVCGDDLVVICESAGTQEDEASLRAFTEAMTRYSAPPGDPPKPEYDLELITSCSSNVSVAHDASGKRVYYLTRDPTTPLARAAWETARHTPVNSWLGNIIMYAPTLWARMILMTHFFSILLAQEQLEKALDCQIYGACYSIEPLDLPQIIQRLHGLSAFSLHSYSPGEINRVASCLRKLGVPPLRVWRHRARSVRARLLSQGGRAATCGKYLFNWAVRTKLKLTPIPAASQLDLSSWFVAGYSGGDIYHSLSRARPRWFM

SMILES	IC50
COc1ccc2c(c1)C=C(c1c(C(=O)N3[C@H]4CC[C@@H]3CC4)cnn1C)Cn1c-2c(C2CCCCC2)c2ccc(C(=O)NS(=O)(=O)C(C)C)cc21	1 to 500 nM

Same assay, conditions: HCV RdRp genotype 1b enzyme; read-out: IC50

SMILES	IC50
COc1ccc2c(c1)C=C(c1c(C(=O)N3CCN4CCCC4C3)cnn1C)Cn1c-2c(C2CCCCC2)c2ccc(C(=O)NS(=O)(=O)CC(C)C)cc21 (stereo not drawn)	1 to 500 nM
COc1ccc2c(c1)C=C(c1c(C(=O)N3CC4CCC(C3)O4)c(C)nn1C(C)C)Cn1c-2c(C2CCCCC2)c2ccc(C(=O)NS(=O)(=O)C(C)C)cc21	1 to 500 nM
CCC(C)S(=O)(=O)NC(=O)c1ccc2c(C3CCCCC3)c3n(c2c1)CC(c1c(C(=O)N2CCN4CCCC4C2)cnn1C)=Cc1cc(OC)ccc1-3 (stereo not drawn)	1 to 500 nM
CCC(C)S(=O)(=O)NC(=O)c1ccc2c(C3CCCCC3)c3n(c2c1)CC(c1c(C(=O)N2C[C@@H]4C[C@H]2CN4CC)cnn1C)=Cc1cc(OC)ccc1-3 (stereo partly drawn)	1 to 500 nM
COc1ccc2c(c1)C=C(c1c(C(=O)N(Cc3ccccc3OC)C(C)C)cnn1C)Cn1c-2c(C2CCCCC2)c2ccc(C(=O)NS(=O)(=O)C(C)C)cc21	1 to 500 nM
COc1ccc2c(c1)C=C(c1c(C(=O)N3C[C@@H](C)N(C)[C@@H](C)C3)cnn1C)Cn1c-2c(C2CCCCC2)c2ccc(C(=O)NS(=O)(=O)C3CCC3)cc21	1 to 500 nM
CCn1ncc(C(=O)N2CC3CCC(C2)O3)c1C1=Cc2cc(OC)ccc2-c2c(C3CCCCC3)c3ccc(C(=O)NS(=O)(=O)C(C)C)cc3n2C1	1 to 500 nM
CCOC(=O)c1cnn(C)c1C1=Cc2cc(OC)ccc2-c2c(C3CCCCC3)c3ccc(C(=O)NS(=O)(=O)CC(C)C)cc3n2C1	1 to 500 nM
COc1ccc2c(c1)C=C(c1c(C(=O)O)cnn1C)Cn1c-2c(C2CCCCC2)c2ccc(C(=O)NS(=O)(=O)C3CCC3)cc21	1 to 500 nM
CCOC(=O)c1cnn(C)c1C1=Cc2cc(OC)ccc2-c2c(C3CCCCC3)c3ccc(C(=O)NS(=O)(=O)C(C)CC)cc3n2C1 (stereo not drawn)	1 to 500 nM
CCN1CC2CC1CN2C(=O)c1cnn(C)c1C1=Cc2cc(OC)ccc2-c2c(C3CCCCC3)c3ccc(C(=O)NS(=O)(=O)CC(C)C)cc3n2C1 (stereo not drawn)	1 to 500 nM
COc1ccc2c(c1)C=C(c1c(C(=O)N3C[C@@H](C)N(C)[C@@H](C)C3)cnn1C)Cn1c-2c(C2CCCCC2)c2ccc(C(=O)NS(=O)(=O)C3CCCC3)cc21	1 to 500 nM
CCN(C(=O)c1cnn(C)c1C1=Cc2cc(OC)ccc2-c2c(C3CCCCC3)c3ccc(C(=O)NS(=O)(=O)C4CCCC4)cc3n2C1)C(C)C	1 to 500 nM
COc1ccc2c(c1)C=C(c1c(C(=O)N3CCCC(N(C)C)C3)cnn1C)Cn1c-2c(C2CCCCC2)c2ccc(C(=O)NS(=O)(=O)CC(C)C)cc21 (stereo not drawn)	1 to 500 nM
COc1ccc2c(c1)C=C(c1c(C(=O)N3CCCC(N(C)C)C3)cnn1C)Cn1c-2c(C2CCCCC2)c2ccc(C(=O)NS(=O)(=O)C3CCCC3)cc21 (stereo not drawn)	1 to 500 nM
CCN1C[C@@H]2C[C@H]1CN2C(=O)c1cnn(C)c1C1=Cc2cc(OC)ccc2-c2c(C3CCCCC3)c3ccc(C(=O)NS(=O)(=O)C4CCCC4)cc3n2C1	1 to 500 nM
COc1ccc2c(c1)C=C(c1c(C(=O)N3CCN4CCCC4C3)cnn1C)Cn1c-2c(C2CCCCC2)c2ccc(C(=O)NS(=O)(=O)C3CCCC3)cc21 (stereo not drawn)	1 to 500 nM
CCOC(=O)c1cnn(C)c1C1=Cc2cc(OC)ccc2-c2c(C3CCCCC3)c3ccc(C(=O)NS(=O)(=O)C4CCC4)cc3n2C1	1 to 500 nM

Further lines, results first:

IC50	SMILES
1 to 500 nM	CCc1nnc(CN(C(=O)c2cnn(C)c2C2=Cc3cc(OC)ccc3-c3c(C4CCCCC4)c4ccc(C(=O)NS(=O)(=O)C(C)C)cc4n3C2)C(C)C)o1
1 to 500 nM	COc1ccc2c(c1)C=C(c1nn(C(C)C)c(C)c1C(=O)N1C[C@@H](C)O[C@@H](C)C1)Cn1c-2c(C2CCCCC2)c2ccc(C(=O)NS(=O)(=O)C(C)C)cc21 [drawing 622]
1 to 500 nM	COc1ccc2c(c1)C=C(c1c(C(=O)N3C[C@@H](C)O[C@@H](C)C3)cnn1C)Cn1c-2c(C2CCCCC2)c2ccc(C(=O)NS(=O)(=O)C3CCCC3)cc21
1 to 500 nM	COc1ccc2c(c1)C=C(c1nn(C(C)C)c(C)c1C(=O)N1C[C@@H](C)O[C@@H](C)C1)Cn1c-2c(C2CCCCC2)c2ccc(C(=O)NS(=O)(=O)C(C)C)cc21 [drawing 617]
1 to 500 nM	COC(=O)c1c(C)nn(C)c1C1=Cc2cc(OC)ccc2-c2c(C3CCCCC3)c3ccc(C(=O)NS(=O)(=O)CC(C)C)cc3n2C1
1 to 500 nM	COc1ccc2c(c1)C=C(c1c(C(=O)N3C[C@@H](C)O[C@@H](C)C3)cnn1C)Cn1c-2c(C2CCCCC2)c2ccc(C(=O)NS(=O)(=O)C3CCC3)cc21
1 to 500 nM	CCn1nc(C)c(C(=O)N2CCO[C@H](COC)C2)c1C1=Cc2cc(OC)ccc2-c2c(C3CCCCC3)c3ccc(C(=O)NS(=O)(=O)C(C)C)cc3n2C1
1 to 500 nM	COc1ccc2c(c1)C=C(c1c(C(=O)O)cnn1C)Cn1c-2c(C2CCCCC2)c2ccc(C(=O)NS(=O)(=O)C(C)C)cc21
1 to 500 nM	COc1ccc2c(c1)C=C(c1c(C(=O)N3C[C@@H](C)N(C)[C@@H](C)C3)cnn1C)Cn1c-2c(C2CCCCC2)c2ccc(C(=O)NS(=O)(=O)CC(C)C)cc21
1 to 500 nM	COC(=O)c1c(C)nn(C)c1C1=Cc2cc(OC)ccc2-c2c(C3CCCCC3)c3ccc(C(=O)NS(=O)(=O)N(C)C)cc3n2C1
1 to 500 nM	CCn1nc(C)c(C(=O)N2C[C@@H](C)N(C)[C@@H](C)C2)c1C1=Cc2cc(OC)ccc2-c2c(C3CCCCC3)c3ccc(C(=O)NS(=O)(=O)C(C)C)cc3n2C1
